Species on record: Rattus norvegicus
Assay: Open TG-GATES - Regimen: Daily Repeat
Assay type: toxicity, organism-based, Sprague-Dawley
Design: regimen Daily Repeat, gender Male, age 6 weeks
Conditions: in vivo, po, 0 mg/kg, route gavage, dose level Control; for APTT / Bas / Eos / Fbg / Hb / Ht / Lym / MCHC / MCV / Mono / Neu / PT / Plat / RBC / Ret / WBC: tissue Blood; for KIDNEY_L / KIDNEY_R / KIDNEY_TOTAL: tissue Kidney; for LIVER: tissue Liver; for ALP / ALT / AST / BUN / CRE / Ca / Cl / DBIL / GLC / IP / K / LDH / Na / PL / RALB / TBIL / TC / TG / TP / gamma-GTP: tissue Plasma

C1CCC(C(CC2CCCCN2)C2CCCCC2)CC1 (centres undefined) [PERHEXILINE]
TERMINAL_BW (72 h, time 3 day): 228.9 g | APTT (72 h, time 3 day): 21.9 s | Bas (72 h, time 3 day): 0% | Eos (72 h, time 3 day): 0.8% | Fbg (72 h, time 3 day): 312.4 mg/dL | Hb (72 h, time 3 day): 13.2 g/dL | Ht (72 h, time 3 day): 39.2% | Lym (72 h, time 3 day): 79% | MCHC (72 h, time 3 day): 33.8% | MCV (72 h, time 3 day): 63.9 fL | Mono (72 h, time 3 day): 2.8% | Neu (72 h, time 3 day): 16.2% | PT (72 h, time 3 day): 16.7 s | Plat (72 h, time 3 day): 133 x10_4/uL | RBC (72 h, time 3 day): 613.6 x10_4/ul | Ret (72 h, time 3 day): 7% | WBC (72 h, time 3 day): 89.3 x10_2/uL | KIDNEY_L (72 h, time 3 day): 1.1 g | KIDNEY_R (72 h, time 3 day): 1 g | KIDNEY_TOTAL (72 h, time 3 day): 2.1 g | LIVER (72 h, time 3 day): 11.1 g | ALP (72 h, time 3 day): 1695 IU/L | ALT (72 h, time 3 day): 45.8 IU/L | AST (72 h, time 3 day): 76.4 IU/L | BUN (72 h, time 3 day): 16.4 mg/dL | CRE (72 h, time 3 day): 0.1 mg/dL | Ca (72 h, time 3 day): 11 mg/dL | Cl (72 h, time 3 day): 107.2 meq/L | DBIL (72 h, time 3 day): 0 mg/dL | GLC (72 h, time 3 day): 192.6 mg/dL | IP (72 h, time 3 day): 6.9 mg/dL | K (72 h, time 3 day): 4.3 meq/L | LDH (72 h, time 3 day): 248.8 IU/L | Na (72 h, time 3 day): 143.2 meq/L | PL (72 h, time 3 day): 149.4 mg/dL | RALB (72 h, time 3 day): 3.2 g/dL | TBIL (72 h, time 3 day): 0.01 mg/dL | TC (72 h, time 3 day): 75.6 mg/dL | TG (72 h, time 3 day): 113.8 mg/dL | TP (72 h, time 3 day): 5.8 g/dL | gamma-GTP (72 h, time 3 day): 1 IU/L | TERMINAL_BW ([…], time 7 day): 255.2 g | TERMINAL_BW ([…], time 14 day): 290.3 g | TERMINAL_BW ([…], time 28 day): 335.5 g | APTT ([…], time 7 day): 21.5 s | Bas ([…], time 7 day): 0% | Eos ([…], time 7 day): 0.6% | Fbg ([…], time 7 day): 316.4 mg/dL | Hb ([…], time 7 day): 13.5 g/dL | Ht ([…], time 7 day): 38.5% | Lym ([…], time 7 day): 81.8% | MCHC ([…], time 7 day): 35.2% | MCV ([…], time 7 day): 61.3 fL | Mono ([…], time 7 day): 1.4% | Neu ([…], time 7 day): 15% | PT ([…], time 7 day): 16.1 s | Plat ([…], time 7 day): 118.5 x10_4/uL | RBC ([…], time 7 day): 629 x10_4/ul | Ret ([…], time 7 day): 5.6% | WBC ([…], time 7 day): 110.4 x10_2/uL | APTT ([…], time 14 day): 23.3 s | Bas ([…], time 14 day): 0% | Eos ([…], time 14 day): 0.2% | Fbg ([…], time 14 day): 294 mg/dL | Hb ([…], time 14 day): 15 g/dL | Ht ([…], time 14 day): 42.7% | Lym ([…], time 14 day): 82% | MCHC ([…], time 14 day): 35.2% | MCV ([…], time 14 day): 60.8 fL | Mono ([…], time 14 day): 1.2% | Neu ([…], time 14 day): 15.2% | PT ([…], time 14 day): 16.2 s | Plat ([…], time 14 day): 116.2 x10_4/uL | RBC ([…], time 14 day): 702.8 x10_4/ul | Ret ([…], time 14 day): 3.5% | WBC ([…], time 14 day): 97.2 x10_2/uL | APTT ([…], time 28 day): 21.5 s | Bas ([…], time 28 day): 0% | Eos ([…], time 28 day): 0.6% | Fbg ([…], time 28 day): 316.4 mg/dL | Hb ([…], time 28 day): 13.5 g/dL | Ht ([…], time 28 day): 38.5% | Lym ([…], time 28 day): 81.8% | MCHC ([…], time 28 day): 35.2% | MCV ([…], time 28 day): 61.3 fL | Mono ([…], time 28 day): 1.4% | Neu ([…], time 28 day): 15% | PT ([…], time 28 day): 16.1 s | Plat ([…], time 28 day): 118.5 x10_4/uL | RBC ([…], time 28 day): 629 x10_4/ul | Ret ([…], time 28 day): 5.6% | WBC ([…], time 28 day): 110.4 x10_2/uL | KIDNEY_L ([…], time 7 day): 1.1 g | KIDNEY_R ([…], time 7 day): 1.1 g | KIDNEY_TOTAL ([…], time 7 day): 2.2 g | KIDNEY_L ([…], time 14 day): 1.1 g | KIDNEY_R ([…], time 14 day): 1.1 g | KIDNEY_TOTAL ([…], time 14 day): 2.3 g | KIDNEY_L ([…], time 28 day): 1.2 g | KIDNEY_R ([…], time 28 day): 1.2 g | KIDNEY_TOTAL ([…], time 28 day): 2.5 g | LIVER ([…], time 7 day): 11.8 g | LIVER ([…], time 14 day): 12.3 g | LIVER ([…], time 28 day): 12.9 g | ALP ([…], time 7 day): 1691 IU/L | ALT ([…], time 7 day): 38 IU/L | AST ([…], time 7 day): 67.6 IU/L | BUN ([…], time 7 day): 18.6 mg/dL | CRE ([…], time 7 day): 0.2 mg/dL | Ca ([…], time 7 day): 10.5 mg/dL | Cl ([…], time 7 day): 106.6 meq/L | DBIL ([…], time 7 day): 0.002 mg/dL | GLC ([…], time 7 day): 190.4 mg/dL | IP ([…], time 7 day): 6.8 mg/dL | K ([…], time 7 day): 4.1 meq/L | LDH ([…], time 7 day): 174.2 IU/L | Na ([…], time 7 day): 143.6 meq/L | PL ([…], time 7 day): 152.6 mg/dL | RALB ([…], time 7 day): 3.1 g/dL | TBIL ([…], time 7 day): 0.014 mg/dL | TC ([…], time 7 day): 79.8 mg/dL | TG ([…], time 7 day): 101 mg/dL | TP ([…], time 7 day): 5.8 g/dL | gamma-GTP ([…], time 7 day): 1.6 IU/L | ALP ([…], time 14 day): 1487.8 IU/L | ALT ([…], time 14 day): 39.2 IU/L | AST ([…], time 14 day): 71.8 IU/L | BUN ([…], time 14 day): 19 mg/dL | CRE ([…], time 14 day): 0.2 mg/dL | Ca ([…], time 14 day): 10.2 mg/dL | Cl ([…], time 14 day): 107 meq/L | DBIL ([…], time 14 day): 0 mg/dL | GLC ([…], time 14 day): 192 mg/dL | IP ([…], time 14 day): 6.1 mg/dL | K ([…], time 14 day): 4.2 meq/L | LDH ([…], time 14 day): 180 IU/L | Na ([…], time 14 day): 143.2 meq/L | PL ([…], time 14 day): 134 mg/dL | RALB ([…], time 14 day): 3.2 g/dL | TBIL ([…], time 14 day): 0.005 mg/dL | TC ([…], time 14 day): 59 mg/dL | TG ([…], time 14 day): 131.5 mg/dL | TP ([…], time 14 day): 5.8 g/dL | gamma-GTP ([…], time 14 day): 1 IU/L | ALP ([…], time 28 day): 1236.4 IU/L | ALT ([…], time 28 day): 34.4 IU/L | AST ([…], time 28 day): 60 IU/L | BUN ([…], time 28 day): 17.8 mg/dL | CRE ([…], time 28 day): 0.2 mg/dL | Ca ([…], time 28 day): 10.1 mg/dL | Cl ([…], time 28 day): 108.6 meq/L | DBIL ([…], time 28 day): 0 mg/dL | GLC ([…], time 28 day): 204.2 mg/dL | IP ([…], time 28 day): 5.6 mg/dL | K ([…], time 28 day): 4.2 meq/L | LDH ([…], time 28 day): 148.4 IU/L | Na ([…], time 28 day): 143.6 meq/L | PL ([…], time 28 day): 129.6 mg/dL | RALB ([…], time 28 day): 3 g/dL | TBIL ([…], time 28 day): 0.008 mg/dL | TC ([…], time 28 day): 63 mg/dL | TG ([…], time 28 day): 92.8 mg/dL | TP ([…], time 28 day): 6 g/dL | gamma-GTP ([…], time 28 day): 1.4 IU/L

Reference: ChEMBL document CHEMBL3885861, “Open TG-GATES”
